For two molecules, inhibition results are on record in ChEMBL document CHEMBL1150995, “DNA cleavage by photoexcited diazoarenes” (Bioorg Med Chem Lett, 1997).

Assay [1] can be described thus: Inhibitory effect of D2O on light induced nuclease activity was determined. The settings on record: concentration not given here.
Assay [2] is described as follows: Inhibitory effect of DMSO (0.2 M) on light induced nuclease activity was determined.
Assay [3] in a line: Inhibitory effect of cumene (100 uM) on light induced nuclease activity was determined.
The nature of assay [4]: Inhibitory effect of 2-Propanol (100 uM) on light induced nuclease activity was determined.
Assay [5] in a line: Inhibitory effect of triphenylphosphine (100 uM) on light induced nuclease activity was determined.
The nature of assay [6]: Inhibitory effect of SOD (100 ng) on light induced nuclease activity was determined.
Assay [7] can be described thus: Inhibitory effect of DABCO (0.2 M) on light induced nuclease activity was determined.
A short description of assay [8]: Inhibitory effect of Mannitol (100 mM) on light induced nuclease activity was determined.

Molecules are shown by their SMILES.

In the case of `[N-]=[N+]=c1c2ccccc2oc2ccccc12`, the inhibition in assay [1] is 8%; in assay [2] it was 5%; in assay [3], 58%; in assay [4] it was 30%; in assay [5], 35%; in assay [6], 8%. Also, the inhibition in assay [7] was 38%; in assay [8] it was 3%.

Take `[N-]=[N+]=C1c2ccccc2C(=O)c2ccccc21`: the inhibition in assay [1] turned out to be 10%; in assay [2], 12%; in assay [3] it was 39%; in assay [4] it was 25%; in assay [5] it was 35%; in assay [6], 10%. The inhibition in assay [7] is 30%; in assay [8] it was 5%.

What is called inhibition is the drop in the measured response relative to a control, in per cent. The low end stands for little suppression, the high end for strong suppression.
